Test results reported in US4971962A, “Cephalosporin compounds” (Lucky, Ltd., priority 1988, dated 1990).
In brackets after ≈: the same amount, converted by molar mass. Where two headings read alike, the source gives them in different places.

How the values were obtained:
[1] = system: gram-negative bacteria including Pseudomonas aeruginosa; test: In-vitro antibacterial activity, comparison over gram-negative bacteria; format: cell-based; settings: from Table 1
Procedure: (§1) In-vitro antibacterial activity was determined by the two-fold dilution method as described below. 2 μl of the test microorganism which has the 10^7 CFU per ml was inoculated on the Muller-Hinton agar which has been dispersed by the test compound, and was incubated at 37° C. for 20 hours.

[2] = Pharmacokinetics of compound (Ib) in rat, intravenous, plasma by HPLC; format: in vivo, rat (Fischer); settings: for half-life: rat, 14.29 mg/kg
Procedure: The pharmacokinetics of the invented compound (Ib) was studied in rat (Fischer, 6~10 weeks). The compound (Ib) was dissolved in phosphate bupper solution(0.05M; pH=9) and intraveneouly administered in a dose of 14.29 mg/kg to four rats, and blood samples from the rats were taken at 1, 5, 10 and 30 mins and 1, 2, 3, 5 and 7 hours after administration of the compound (Ib), respectively.
The concentrations in plasma were measured by HPLC analysis of blood samples, and the results of average concentrations in plasma were listed in Table 2.

[3] = system: Bacillus subtilis ATCC 6633; test: In-vitro antibacterial activity (MIC), two-fold dilution method; format: cell-based; settings: read-out: minimal inhibitory concentration (MIC)
Procedure: as §1

[4] = system: Staphylococcus aureus ATCC 10537; test: as above; format: cell-based; settings: read-out: minimal inhibitory concentration (MIC)
Procedure: as §1

[5] = system: Proteus mirabilis ATCC 25933; test: as above; format: cell-based; settings: read-out: minimal inhibitory concentration (MIC)
Procedure: as §1

[6] = system: Salmonella typhimurium ATCC 14028; test: as above; format: cell-based; settings: Salmonella enterica, read-out: minimal inhibitory concentration (MIC)
Procedure: as §1

[7] = system: Pseudomonas aeruginosa ATCC 25619; test: as above; format: cell-based; settings: read-out: minimal inhibitory concentration (MIC)
Procedure: as §1

[8] = system: Pseudomonas aeruginosa ATCC 10145; test: as above; format: cell-based; settings: read-out: minimal inhibitory concentration (MIC)
Procedure: as §1

[9] = system: Enterobacter aerogenes ATCC 29751; test: as above; format: cell-based; settings: Klebsiella aerogenes, read-out: minimal inhibitory concentration (MIC)
Procedure: as §1

[10] = system: Escherichia coli ATCC 10536; test: as above; format: cell-based; settings: read-out: minimal inhibitory concentration (MIC)
Procedure: as §1

[11] = system: Serratia marcescens ATCC 27117; test: as above; format: cell-based; settings: read-out: minimal inhibitory concentration (MIC)
Procedure: as §1

[12] = system: Klebsiella pneumoniae ATCC 10031; test: as above; format: cell-based; settings: read-out: minimal inhibitory concentration (MIC)
Procedure: as §1

[13] = system: Pseudomonas aeruginosa ATCC 27853; test: as above; format: cell-based; settings: read-out: minimal inhibitory concentration (MIC)
Procedure: as §1

[14] = system: gram-positive bacteria, especially, Staphylococcus aureus and Bacillus subtilis; test: In-vitro antibacterial activity, comparison over gram-positive bacteria; format: cell-based; settings: from Table 1
Procedure: as §1

[15] = dog (Beagle), i.v. 20 mg/kg, II Compartment; cited from earlier work
[16] = monkey (Rhesus), i.v. 20 mg/kg, II Compartment; cited from earlier work
[17] = rat (SD), i.v. 20 mg/kg, II Compartment; cited from earlier work
[18] = ATCC6633, Bacillus subtilis ATCC 6633, Muller-Hinton agar, 37° C., 20 hours
[19] = Staphylococcus aureus, ATCC10537, 20 h
[20] = ATCC25933, Proteus mirabilis ATCC 25933, Muller-Hinton agar, 37° C., 20 hours
[21] = Salmonella typhimurium ATCC 14028, Muller-Hinton agar, 37° C., 20 hours
[22] = ATCC25619, Pseudomonas aeruginosa ATCC 25619, Muller-Hinton agar, 37° C., 20 hours
[23] = ATCC10145, Pseudomonas aeruginosa ATCC 10145, Muller-Hinton agar, 37° C., 20 hours
[24] = ATCC29751, Enterobacter aerogenes ATCC 29751, Muller-Hinton agar, 37° C., 20 hours
[25] = ATCC10536, Escherichia coli ATCC 10536, Muller-Hinton agar, 37° C., 20 hours
[26] = ATCC27117, Serratia marcescens ATCC 27117, Muller-Hinton agar, 37° C., 20 hours
[27] = ATCC10031, Klebsiella pneumoniae ATCC 10031, Muller-Hinton agar, 37° C., 20 hours
[28] = ATCC27853, Pseudomonas aeruginosa ATCC 27853, Muller-Hinton agar, 37° C., 20 hours
[29] = Bacillus subtilis, ATCC6633, 20 h
[30] = ATCC10537, Staphylococcus aureus ATCC 10537, Muller-Hinton agar, 37° C., 20 hours
[31] = Pseudomonas aeruginosa, ATCC10145, 20 h

Nc1nc(/C(=N/OCc2ccco2)C(=O)NC2C(=O)N3C(C(=O)[O-])=C(C[n+]4ccccc4)CSC23)cs1 (centres unmarked) [Compound (Ib), 7-[(Z)-2-(2-Aminothiazol-4-yl)-2-(2-furfuryl-oxyimino)acetamido]-3-(1-pyridiniummethyl)-3-cephem-4-carboxylate]
activity against gram-negative bacteria as compared with ceftazidime and moxalactam [1]: almost equally active
AUC ratio to cefotaxime ([2]; Ib in rat vs cefotaxime in rat): 6.5 times
T1/2 (β) ratio to cefotaxime in rat ([2]; Ib in rat vs cefotaxime in rat): 6.4 times
T1/2 (β) ratio to ceftazidime or ceftriaxone in dog ([2]; Ib in rat vs ceftazidime or ceftriaxone in dog): 1.9 times
AUC ([2]; plasma, iv, rat (Fischer), i.v. 14.29 mg/kg, II Compartment): 62400 ng·h/mL
concentration at 1 min ([2]; plasma, iv, rat (Fischer), i.v. 14.29 mg/kg, average of four rats, 1 min): 112000 ng/mL
concentration at 5 min ([2]; plasma, iv, rat (Fischer), i.v. 14.29 mg/kg, average of four rats, 5 min): 60600 ng/mL
concentration at 10 min ([2]; plasma, iv, rat (Fischer), i.v. 14.29 mg/kg, average of four rats, 10 min): 43000 ng/mL
concentration at 0.5 h ([2]; plasma, iv, rat (Fischer), i.v. 14.29 mg/kg, average of four rats, 30 min): 20700 ng/mL
concentration at 1 h ([2]; plasma, iv, rat (Fischer), i.v. 14.29 mg/kg, average of four rats, 1 hr): 12600 ng/mL
concentration at 2 h ([2]; plasma, iv, rat (Fischer), i.v. 14.29 mg/kg, average of four rats, 2 hr): 6100 ng/mL
concentration at 3 h ([2]; plasma, iv, rat (Fischer), i.v. 14.29 mg/kg, average of four rats, 3 hr): 4300 ng/mL
concentration at 5 h ([2]; plasma, iv, rat (Fischer), i.v. 14.29 mg/kg, average of four rats, 5 hr): 1600 ng/mL
concentration at 7 h ([2]; plasma, iv, rat (Fischer), i.v. 14.29 mg/kg, average of four rats, 7 hr): 900 ng/mL
half-life ([2]; plasma, iv, rat (Fischer), i.v. 14.29 mg/kg, II Compartment, read-out: T1/2 (α)): 6.21 min
half-life ([2]; plasma, iv, rat (Fischer), i.v. 14.29 mg/kg, II Compartment, read-out: T1/2 (β)): 95 min
MIC [3, 18]: 0.25 µg/mL (≈ 0.462 µM)
MIC [4, 19]: 0.25 µg/mL (≈ 0.462 µM)
MIC [5, 20]: 0.5 µg/mL (≈ 0.925 µM)
MIC [6, 21]: 2 µg/mL (≈ 3.7 µM)
MIC [7, 22]: 1 µg/mL (≈ 1.85 µM)
MIC [8, 23]: 8 µg/mL (≈ 14.8 µM)
MIC [9, 24]: 4 µg/mL (≈ 7.4 µM)
MIC [10, 25]: 0.5 µg/mL (≈ 0.925 µM)
MIC [11, 26]: 0.5 µg/mL (≈ 0.925 µM)
MIC [12, 27]: 0.0625 µg/mL (≈ 0.116 µM)
MIC [13, 28]: 8 µg/mL (≈ 14.8 µM)
activity against gram-positive bacteria as compared with ceftazidime and moxalactam [14]: superior antimicrobiral activities

CC(=O)OCC1=C(C(=O)O)N2C(=O)C(NC(=O)/C(=N\OCc3ccco3)c3csc(N)n3)C2SC1 (centres unmarked) [(Ia), 7-[(Z)-2-(2-Aminothiazol-4-yl)-2-(2-furfuryl-oxyimino)acetamido]-3-acetoxymethyl-3-cephem-4-carboxylic acid]
activity against gram-negative bacteria as compared with ceftazidime and moxalactam [1]: almost equally active
MIC [3, 29]: 0.5 µg/mL (≈ 0.959 µM)
MIC [4, 19]: 1 µg/mL (≈ 1.92 µM)
MIC [5, 20]: 0.125 µg/mL (≈ 0.24 µM)
MIC [6, 21]: 2 µg/mL (≈ 3.83 µM)
MIC [7, 22]: 1 µg/mL (≈ 1.92 µM)
MIC [8, 23]: 16 µg/mL (≈ 30.7 µM)
MIC [9, 24]: 16 µg/mL (≈ 30.7 µM)
MIC [10, 25]: 0.5 µg/mL (≈ 0.959 µM)
MIC [11, 26]: 1 µg/mL (≈ 1.92 µM)
MIC [12, 27]: < 0.0312 µg/mL
MIC [13, 28]: 16 µg/mL (≈ 30.7 µM)
activity against gram-positive bacteria as compared with ceftazidime and moxalactam [14]: superior antimicrobiral activities

Cn1nnnc1SCC1=C(C(=O)O)N2C(=O)C(NC(=O)/C(=N\OCc3ccco3)c3csc(N)n3)C2SC1 (centres unmarked) [(Ic), Sodium 7-[(Z)-2-(2-aminothiazol-4-yl)-2-(2-furfuryloxyimino)-acetamido]-3-[(1-methyl-1H-tetrazol-5-yl)thiomethyl]-3-cephem-4-carboxylate]
activity against gram-negative bacteria as compared with ceftazidime and moxalactam [1]: almost equally active
MIC [3, 18]: 0.5 µg/mL
MIC [4, 30]: 1 µg/mL
MIC [5, 20]: 0.25 µg/mL
MIC [6, 21]: 2 µg/mL
MIC [7, 22]: 1 µg/mL
MIC [8, 23]: 16 µg/mL
MIC [9, 24]: 8 µg/mL
MIC [10, 25]: 0.5 µg/mL
MIC [11, 26]: 1 µg/mL
MIC [12, 27]: < 0.0315 µg/mL
MIC [13, 28]: 16 µg/mL
activity against gram-positive bacteria as compared with ceftazidime and moxalactam [14]: superior antimicrobiral activities

CC(C)(O/N=C(\C(=O)N[C@@H]1C(=O)N2C(C(=O)[O-])=C(C[n+]3ccccc3)CS[C@H]12)c1csc(N)n1)C(=O)O [Ceftazidime, reference compound]
AUC [15]: 93000 ng·h/mL
MIC [3, 29]: 16 µg/mL (≈ 29.3 µM)
MIC [4, 19]: 4 µg/mL (≈ 7.32 µM)
MIC ([5]; Proteus mirabilis, ATCC25933, 20 h): 0.0625 µg/mL (≈ 0.114 µM)
MIC ([6]; 20 h): 0.25 µg/mL (≈ 0.457 µM)
MIC ([7]; Pseudomonas aeruginosa, ATCC25619, 20 h): 1 µg/mL (≈ 1.83 µM)
MIC [8, 31]: 2 µg/mL (≈ 3.66 µM)
MIC ([9]; ATCC29751, 20 h): 4 µg/mL (≈ 7.32 µM)
MIC ([10]; Escherichia coli, ATCC10536, 20 h): 0.125 µg/mL (≈ 0.229 µM)
MIC ([11]; Serratia marcescens, ATCC27117, 20 h): 0.0625 µg/mL (≈ 0.114 µM)
MIC ([12]; Klebsiella pneumoniae, ATCC10031, 20 h): 0.125 µg/mL (≈ 0.229 µM)
MIC ([13]; Pseudomonas aeruginosa, ATCC27853, 20 h): 2 µg/mL (≈ 3.66 µM)

CO[C@@]1(NC(=O)C(C(=O)O)c2ccc(O)cc2)C(=O)N2C(C(=O)O)=C(CSc3nnnn3C)CO[C@@H]21 (some centres unmarked) [Moxalactam, reference compound]
MIC [3, 29]: 8 µg/mL (≈ 15.4 µM)
MIC [4, 30]: 4 µg/mL (≈ 7.69 µM)
MIC [5, 20]: 0.25 µg/mL (≈ 0.48 µM)
MIC [6, 21]: 0.25 µg/mL (≈ 0.48 µM)
MIC [7, 22]: 8 µg/mL (≈ 15.4 µM)
MIC [8, 31]: 32 µg/mL (≈ 61.5 µM)
MIC [9, 24]: 1 µg/mL (≈ 1.92 µM)
MIC [10, 25]: 0.125 µg/mL (≈ 0.24 µM)
MIC [11, 26]: 0.125 µg/mL (≈ 0.24 µM)
MIC [12, 27]: 0.25 µg/mL (≈ 0.48 µM)
MIC [13, 28]: 16 µg/mL (≈ 30.7 µM)

CO/N=C(\C(=O)N[C@@H]1C(=O)N2C(C(=O)O)=C(CSc3nc(=O)c(=O)[nH]n3C)CS[C@H]12)c1csc(N)n1 [Ceftriaxone]
AUC [15]: 84300 ng·h/mL
T1/2 (α) [15]: 6.80 min
T1/2 (β) [15]: 50.7 min
AUC [16]: 838000 ng·h/mL
T1/2 (α) [16]: 23.16 min
T1/2 (β) [16]: 204 min

CO/N=C(\C(=O)N[C@@H]1C(=O)N2C(C(=O)O)=C(COC(C)=O)CS[C@H]12)c1csc(N)n1 [Cefotaxime]
AUC [17]: 13500 ng·h/mL
T1/2 (α) [17]: 4.55 min
T1/2 (β) [17]: 14.8 min
